These results are taken from patent US20090304692A1, “TRIAZINE COMPOUNDS AS PI3 KINASE AND MTOR INHIBITORS” (Wyeth, priority 2008, published 2009).

In one assay the target is Human mTOR (FLAG-TOR) (Homo sapiens, UniProt P42345). Kind of assay: mTOR kinase assay (DELFIA format, purified enzyme). To be noted: read-out: IC50 mTOR. The class given is biochemical.
Assay [1] has as its system human breast MDA-MB-361 tumor cell line. The assay is described as follows: In vitro cell culture growth assay (MTS), MDA-MB-361. The class given is cell-based. To be noted: Homo sapiens, MTS cell growth assay, three days after drug treatment, MDA-MB-361 cells, read-out: IC50 MDA-MB-361. Background: Tetrazolium dyes change colour on reduction, which living cells bring about.

The subject of assay [2] is human prostate PC3-mm2 tumor cell line. Kind of assay: In vitro cell culture growth assay (MTS), PC3-mm2. The format is cell-based. To be noted: Homo sapiens, PC3MM2, 72 h, MTS cell growth assay, three days after drug treatment, PC3-mm2 cells; read-out: IC50 PC3-mm2.
The target in another assay is PI3K-α (Homo sapiens, UniProt P42336). The assay is described as follows: PI3K-alpha fluorescence polarization assay. To be noted: read-out: IC50 PI3Kα.
The target of the next assay is PI3K-γ (Homo sapiens, UniProt P48736). Kind of assay: PI3K-gamma fluorescence polarization assay. The conditions noted are these: read-out: IC50 PI3Kγ.

Like-named read-outs stand apart in the source and are kept apart here. Bounds are passed on as bounds.

Sequence of PI3K-α (P42336 whole entry, species assumed): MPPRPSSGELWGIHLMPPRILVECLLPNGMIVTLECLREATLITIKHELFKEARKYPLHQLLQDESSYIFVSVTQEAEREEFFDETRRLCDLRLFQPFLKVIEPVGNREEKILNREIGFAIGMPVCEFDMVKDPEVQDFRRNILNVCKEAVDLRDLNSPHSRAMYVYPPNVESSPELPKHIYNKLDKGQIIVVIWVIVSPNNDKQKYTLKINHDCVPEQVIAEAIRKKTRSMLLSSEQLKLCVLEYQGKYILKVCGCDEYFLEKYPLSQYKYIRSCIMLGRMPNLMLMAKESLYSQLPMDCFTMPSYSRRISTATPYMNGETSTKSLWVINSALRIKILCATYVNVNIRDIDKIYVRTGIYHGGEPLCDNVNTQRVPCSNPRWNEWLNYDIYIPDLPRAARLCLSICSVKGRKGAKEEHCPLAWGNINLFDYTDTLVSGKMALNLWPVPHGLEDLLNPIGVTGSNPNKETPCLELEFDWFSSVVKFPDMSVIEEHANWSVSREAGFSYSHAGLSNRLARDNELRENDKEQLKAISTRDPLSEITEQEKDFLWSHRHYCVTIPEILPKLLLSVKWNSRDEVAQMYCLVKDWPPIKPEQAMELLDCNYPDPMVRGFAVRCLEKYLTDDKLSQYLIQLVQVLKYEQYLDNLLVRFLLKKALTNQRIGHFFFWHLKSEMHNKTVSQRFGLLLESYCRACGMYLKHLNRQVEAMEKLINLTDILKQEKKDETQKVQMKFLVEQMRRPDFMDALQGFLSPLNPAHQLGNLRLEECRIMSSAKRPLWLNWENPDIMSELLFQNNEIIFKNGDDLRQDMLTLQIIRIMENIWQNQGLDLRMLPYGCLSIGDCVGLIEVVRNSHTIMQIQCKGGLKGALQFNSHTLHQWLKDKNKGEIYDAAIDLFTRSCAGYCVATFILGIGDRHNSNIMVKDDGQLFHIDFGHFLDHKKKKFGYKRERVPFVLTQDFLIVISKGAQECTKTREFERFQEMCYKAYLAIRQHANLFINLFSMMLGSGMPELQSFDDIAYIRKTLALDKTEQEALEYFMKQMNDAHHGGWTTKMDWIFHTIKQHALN
Sequence of PI3K-α (P27986 whole entry partner, species assumed): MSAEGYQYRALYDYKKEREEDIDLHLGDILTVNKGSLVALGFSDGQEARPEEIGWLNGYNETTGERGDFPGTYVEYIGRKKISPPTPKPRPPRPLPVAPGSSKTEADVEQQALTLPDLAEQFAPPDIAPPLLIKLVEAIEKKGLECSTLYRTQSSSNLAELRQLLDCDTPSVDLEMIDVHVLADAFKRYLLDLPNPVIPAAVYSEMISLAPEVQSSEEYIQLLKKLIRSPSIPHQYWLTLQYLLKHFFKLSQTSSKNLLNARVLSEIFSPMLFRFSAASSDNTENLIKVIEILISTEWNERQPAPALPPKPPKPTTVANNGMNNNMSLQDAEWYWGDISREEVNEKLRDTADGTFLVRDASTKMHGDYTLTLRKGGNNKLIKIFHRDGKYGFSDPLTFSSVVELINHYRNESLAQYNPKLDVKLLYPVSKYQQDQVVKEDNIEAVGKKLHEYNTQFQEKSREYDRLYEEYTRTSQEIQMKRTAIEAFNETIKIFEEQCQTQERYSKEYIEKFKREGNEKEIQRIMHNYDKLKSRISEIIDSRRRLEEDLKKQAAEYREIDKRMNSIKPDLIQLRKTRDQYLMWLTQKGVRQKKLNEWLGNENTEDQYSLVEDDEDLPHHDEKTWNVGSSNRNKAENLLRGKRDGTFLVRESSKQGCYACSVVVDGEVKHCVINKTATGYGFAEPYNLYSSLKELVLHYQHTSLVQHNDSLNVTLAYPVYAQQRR
Sequence of PI3K-γ (P48736 whole entry, species assumed): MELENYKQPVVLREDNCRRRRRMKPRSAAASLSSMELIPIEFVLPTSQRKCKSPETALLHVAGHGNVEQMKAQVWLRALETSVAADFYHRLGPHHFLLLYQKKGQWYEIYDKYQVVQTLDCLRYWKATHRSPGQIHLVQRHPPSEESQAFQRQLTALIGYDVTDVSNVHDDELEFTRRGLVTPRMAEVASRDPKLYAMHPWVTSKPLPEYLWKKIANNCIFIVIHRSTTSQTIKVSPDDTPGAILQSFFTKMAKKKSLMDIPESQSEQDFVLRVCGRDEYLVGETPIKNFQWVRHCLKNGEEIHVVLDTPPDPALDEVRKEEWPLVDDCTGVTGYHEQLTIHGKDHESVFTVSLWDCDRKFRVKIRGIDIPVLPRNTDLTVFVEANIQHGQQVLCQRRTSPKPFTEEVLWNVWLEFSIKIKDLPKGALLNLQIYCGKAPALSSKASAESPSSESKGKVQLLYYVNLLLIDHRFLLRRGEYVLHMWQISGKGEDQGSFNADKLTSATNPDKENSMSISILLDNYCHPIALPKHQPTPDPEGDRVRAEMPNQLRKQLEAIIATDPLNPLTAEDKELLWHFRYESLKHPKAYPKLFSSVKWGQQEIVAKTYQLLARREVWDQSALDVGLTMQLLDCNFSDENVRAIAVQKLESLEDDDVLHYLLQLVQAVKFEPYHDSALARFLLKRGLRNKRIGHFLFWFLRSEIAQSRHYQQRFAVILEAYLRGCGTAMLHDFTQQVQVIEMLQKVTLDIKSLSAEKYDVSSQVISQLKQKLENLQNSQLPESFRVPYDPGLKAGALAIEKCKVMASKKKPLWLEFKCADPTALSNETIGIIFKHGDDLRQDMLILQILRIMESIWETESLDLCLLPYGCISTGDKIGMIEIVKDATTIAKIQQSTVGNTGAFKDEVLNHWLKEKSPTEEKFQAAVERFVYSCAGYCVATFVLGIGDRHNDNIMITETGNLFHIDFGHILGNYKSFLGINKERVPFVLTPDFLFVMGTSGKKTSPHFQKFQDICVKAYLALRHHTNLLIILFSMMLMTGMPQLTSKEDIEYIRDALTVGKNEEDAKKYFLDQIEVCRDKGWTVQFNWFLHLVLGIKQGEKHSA
Sequence of Human mTOR (FLAG-TOR) (P42345 1360-2549 limits assumed): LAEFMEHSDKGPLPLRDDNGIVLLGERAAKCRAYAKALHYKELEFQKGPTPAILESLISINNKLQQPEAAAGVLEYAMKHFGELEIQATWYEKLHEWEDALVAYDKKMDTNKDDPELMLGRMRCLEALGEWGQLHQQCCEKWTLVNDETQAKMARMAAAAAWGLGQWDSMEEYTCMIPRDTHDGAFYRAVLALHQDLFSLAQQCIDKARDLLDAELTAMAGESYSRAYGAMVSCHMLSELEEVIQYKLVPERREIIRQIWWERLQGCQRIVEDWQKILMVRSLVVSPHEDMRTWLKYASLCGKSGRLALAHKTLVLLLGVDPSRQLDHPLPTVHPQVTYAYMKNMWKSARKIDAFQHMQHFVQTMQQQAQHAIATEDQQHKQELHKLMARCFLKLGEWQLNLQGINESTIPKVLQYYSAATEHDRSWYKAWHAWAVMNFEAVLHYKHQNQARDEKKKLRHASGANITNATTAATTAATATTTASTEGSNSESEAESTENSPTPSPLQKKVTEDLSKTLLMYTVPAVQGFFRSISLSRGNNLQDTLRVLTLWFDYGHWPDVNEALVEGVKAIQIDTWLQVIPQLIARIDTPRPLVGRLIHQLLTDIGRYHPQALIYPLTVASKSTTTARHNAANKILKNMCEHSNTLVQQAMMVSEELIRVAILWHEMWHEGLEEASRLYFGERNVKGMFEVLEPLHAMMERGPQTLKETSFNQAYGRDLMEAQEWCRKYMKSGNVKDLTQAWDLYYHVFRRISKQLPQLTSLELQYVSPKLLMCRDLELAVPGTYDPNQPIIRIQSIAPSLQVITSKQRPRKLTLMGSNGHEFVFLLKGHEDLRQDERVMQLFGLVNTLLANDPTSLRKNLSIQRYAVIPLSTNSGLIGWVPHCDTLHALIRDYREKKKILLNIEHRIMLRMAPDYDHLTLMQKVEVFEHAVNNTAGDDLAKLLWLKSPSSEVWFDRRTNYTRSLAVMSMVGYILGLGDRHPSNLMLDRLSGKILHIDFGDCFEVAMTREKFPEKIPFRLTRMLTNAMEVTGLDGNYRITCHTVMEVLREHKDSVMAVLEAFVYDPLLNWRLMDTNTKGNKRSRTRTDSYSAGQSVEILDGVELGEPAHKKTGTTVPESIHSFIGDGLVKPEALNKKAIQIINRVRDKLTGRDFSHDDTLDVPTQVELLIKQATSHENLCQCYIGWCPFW

With `CN(C)CCN(C)C(=O)c1ccc(NC(=O)Nc2ccc(-c3nc(-c4cccs4)nc(N4CCOCC4)n3)cc2)cc1` [Example 562, N-[2-(dimethylamino)ethyl]-N-methyl-4-[({4-[4-morpholin-4-yl-6-(2-thienyl)-1,3,5-triazin-2-yl]phenyl}carbamoyl)amino]benzamide], the IC50 (usually the concentration that inhibits the measured activity by half) worked out at 4 nM at Human mTOR (FLAG-TOR); 3 nM in assay [1] (72 h); 93 nM in assay [2]; 1 nM at PI3K-α; 10.5 nM at PI3K-γ.

`CN(C)CCNC(=O)c1ccc(NC(=O)Nc2ccc(-c3nc(-c4cccs4)nc(N4CCOCC4)n3)cc2)cc1` [Example 563, N-[2-(dimethylamino)ethyl]-4-[({4-[4-morpholin-4-yl-6-(2-thienyl)-1,3,5-triazin-2-yl]phenyl}carbamoyl)amino]benzamide]: the half-inhibitory concentration (IC50) at Human mTOR (FLAG-TOR) was 3 nM; in assay [1] (72 h), 10 nM; in assay [2], 171 nM; at PI3K-α, 2.5 nM; at PI3K-γ, 33.5 nM.

Turning to `C[C@H]1COCCN1c1nc(-c2ccc(NC(=O)Nc3ccc(C(=O)N(C)CCN(C)C)cc3)cc2)nc(N2CCOC[C@@H]2C)n1` [Example 564, 4-{[(4-{4,6-bis[(3S)-3-methylmorpholin-4-yl]-1,3,5-triazin-2-yl}phenyl)carbamoyl]amino}-N-[2-(dimethylamino)ethyl]-N-methylbenzamide], the half-inhibitory concentration (IC50) came to 1 nM on Human mTOR (FLAG-TOR); 1 nM in assay [1] (72 h); 7 nM in assay [2]; 0.6 nM on PI3K-α; 16.5 nM at PI3K-γ.

Take `C[C@H]1COCCN1c1nc(-c2ccc(NC(=O)Nc3ccc(C(=O)N4CCN(C)CC4)cc3)cc2)nc(N2CCOC[C@@H]2C)n1` [Example 565, 1-(4-{4,6-bis[(3S)-3-methylmorpholin-4-yl]-1,3,5-triazin-2-yl}phenyl)-3-{4-[(4-methylpiperazin-1-yl)carbonyl]phenyl}urea]: the IC50 on Human mTOR (FLAG-TOR) amounted to 1 nM; in assay [1] (72 h) it was 9 nM; in assay [2], 27 nM; on PI3K-α it was 4.1 nM; at PI3K-γ it was 38 nM.

As for `O=C(Nc1ccncc1)Nc1ccc(-c2nc(N3CCCOCC3)nc(N3CCOCC3)n2)cc1` [Example 566, 1-{4-[4-morpholin-4-yl-6-(1,4-oxazepan-4-yl)-1,3,5-triazin-2-yl]phenyl}-3-pyridin-4-ylurea], the IC50 on Human mTOR (FLAG-TOR) worked out at 2 nM; in assay [1] (72 h) it was 28 nM; in assay [2] it was 55 nM; at PI3K-α, 2.6 nM; at PI3K-γ, 18 nM.

In the case of `COC(=O)c1ccc(NC(=O)Nc2ccc(-c3nc(N4CCCOCC4)nc(N4CCOCC4)n3)cc2)cc1` [Example 567, methyl 4-[({4-[4-morpholin-4-yl-6-(1,4-oxazepan-4-yl)-1,3,5-triazin-2-yl]phenyl}carbamoyl)amino]benzoate], the IC50 at Human mTOR (FLAG-TOR) amounted to 2 nM; in assay [1] (MDA-MB-361, 72 h) it was 106 nM; in assay [2] it was 130 nM; at PI3K-α, 14.5 nM; at PI3K-γ, 90 nM.

For `CN(C)CCCNC(=O)c1ccc(NC(=O)Nc2ccc(-c3nc(-c4cccs4)nc(N4CCOCC4)n3)cc2)cc1` [Example 570, N-[3-(dimethylamino)propyl]-4-[({4-[4-morpholin-4-yl-6-(2-thienyl)-1,3,5-triazin-2-yl]phenyl}carbamoyl)amino]benzamide], the IC50 came out at 13 nM on Human mTOR (FLAG-TOR); 28 nM in assay [1] (72 h); 344 nM in assay [2]; 5.5 nM on PI3K-α; 48 nM at PI3K-γ.

With `COCCNC(=O)c1ccc(NC(=O)Nc2ccc(-c3nc(N4CCCOCC4)nc(N4CCOCC4)n3)cc2)cc1` [Example 574, N-(2-methoxyethyl)-4-[({4-[4-morpholin-4-yl-6-(1,4-oxazepan-4-yl)-1,3,5-triazin-2-yl]phenyl}carbamoyl)amino]benzamide], the IC50 at Human mTOR (FLAG-TOR) came to 6 nM; in assay [1] (72 h), 6 nM; in assay [2], 25 nM; at PI3K-α it was 1 nM; at PI3K-γ, 12.5 nM.

Turning to `CCN1CCN(C(=O)c2ccc(NC(=O)Nc3ccc(-c4nc(-c5cccs5)nc(N5CCOCC5)n4)cc3)cc2)CC1` [Example 575, 1-{4-[(4-ethylpiperazin-1-yl)carbonyl]phenyl}-3-{4-[4-morpholin-4-yl-6-(2-thienyl)-1,3,5-triazin-2-yl]phenyl}urea], the half-inhibitory concentration (IC50) at Human mTOR (FLAG-TOR) came out at 15 nM; in assay [1] (72 h), 15 nM; in assay [2] it was 242 nM; at PI3K-α it was 3 nM; at PI3K-γ, 19 nM.

In the case of `O=C(Nc1ccncc1)Nc1ccc(-c2nc(N3CCCCC3)nc(N3CCOCC3)n2)cc1` [Example 592, 1-[4-(4-morpholin-4-yl-6-piperidin-1-yl-1,3,5-triazin-2-yl)phenyl]-3-pyridin-4-ylurea], the half-maximal inhibitory concentration (IC50) at Human mTOR (FLAG-TOR) came out at 9 nM; in assay [1] (72 h) it was 239 nM; in assay [2], 718 nM; at PI3K-α, 25.5 nM; at PI3K-γ, 122 nM.

On to `O=C(Nc1ccc(C(=O)O)cc1)Nc1ccc(-c2nc(N3CCCCC3)nc(N3CCOCC3)n2)cc1` [Example 593, 4-({[4-(4-morpholin-4-yl-6-piperidin-1-yl-1,3,5-triazin-2-yl)phenyl]carbamoyl}amino)benzoic acid], for which the IC50 at Human mTOR (FLAG-TOR) is 12 nM; in assay [1] (MDA-MB-361, 72 h) it was > 1000 nM; in assay [2] it was > 1000 nM; on PI3K-α, 40 nM; on PI3K-γ it was 143 nM.

Turning to `CCN1CCN(C(=O)c2ccc(NC(=O)Nc3ccc(-c4nc(N5CCCCC5)nc(N5CCOCC5)n4)cc3)cc2)CC1` [Example 596, 1-{4-[(4-ethylpiperazin-1-yl)carbonyl]phenyl}-3-[4-(4-morpholin-4-yl-6-piperidin-1-yl-1,3,5-triazin-2-yl)phenyl]urea], the half-maximal inhibitory concentration (IC50) amounted to 13 nM on Human mTOR (FLAG-TOR); 26 nM in assay [1] (MDA-MB-361, 72 h); 155 nM in assay [2]; 5 nM on PI3K-α; 40.5 nM at PI3K-γ.

As to `CN1CCN(C(=O)c2ccc(NC(=O)Nc3ccc(-c4nc(N5CCCCC5)nc(N5CCOCC5)n4)cc3)cc2)CC1` [Example 597, 1-{4-[(4-methylpiperazin-1-yl)carbonyl]phenyl}-3-[4-(4-morpholin-4-yl-6-piperidin-1-yl-1,3,5-triazin-2-yl)phenyl]urea], the concentration for half-maximal inhibition (IC50) worked out at 11 nM on Human mTOR (FLAG-TOR); 45 nM in assay [1] (MDA-MB-361, 72 h); 229 nM in assay [2]; 5 nM at PI3K-α; 58 nM at PI3K-γ.

Turning to `CN(C)C1CCN(C(=O)c2ccc(NC(=O)Nc3ccc(-c4nc(N5CCCCC5)nc(N5CCOCC5)n4)cc3)cc2)CC1` [Example 598, 1-(4-{[4-(dimethylamino)piperidin-1-yl]carbonyl}phenyl)-3-[4-(4-morpholin-4-yl-6-piperidin-1-yl-1,3,5-triazin-2-yl)phenyl]urea], the IC50 on Human mTOR (FLAG-TOR) was determined as 10 nM; in assay [1] (MDA-MB-361, 72 h), 22 nM; in assay [2], 214 nM; on PI3K-α, 5.5 nM; at PI3K-γ, 40 nM.

Take `CN(C)C1CCN(C(=O)c2ccc(NC(=O)Nc3ccc(-c4nc(N5CCCC5)nc(N5CCOCC5)n4)cc3)cc2)CC1` [Example 602, 1-(4-{[4-(dimethylamino)piperidin-1-yl]carbonyl}phenyl)-3-[4-(4-morpholin-4-yl-6-pyrrolidin-1-yl-1,3,5-triazin-2-yl)phenyl]urea]: the concentration for half-maximal inhibition (IC50) was 11 nM at Human mTOR (FLAG-TOR); 17 nM in assay [1] (MDA-MB-361, 72 h); 122 nM in assay [2]; 7 nM at PI3K-α; 46.5 nM at PI3K-γ.

For the compound `CC(C)N1CCN(C(=O)c2ccc(NC(=O)Nc3ccc(-c4nc(N5CCCC5)nc(N5CCOCC5)n4)cc3)cc2)CC1` [Example 603, 1-(4-{[4-(1-methylethyl)piperazin-1-yl]carbonyl}phenyl)-3-[4-(4-morpholin-4-yl-6-pyrrolidin-1-yl-1,3,5-triazin-2-yl)phenyl]urea], the IC50 on Human mTOR (FLAG-TOR) turned out to be 17 nM; in assay [1] (MDA-MB-361, 72 h), 17 nM; in assay [2], 137 nM; at PI3K-α, 8.5 nM; on PI3K-γ, 50.5 nM.

On to `CN(C)CCN(C)C(=O)c1ccc(NC(=O)Nc2ccc(-c3nc(N4CCCC4)nc(N4CCOCC4)n3)cc2)cc1` [Example 604, N-[2-(dimethylamino)ethyl]-N-methyl-4-({[4-(4-morpholin-4-yl-6-pyrrolidin-1-yl-1,3,5-triazin-2-yl)phenyl]carbamoyl}amino)benzamide], for which the IC50 at Human mTOR (FLAG-TOR) was determined as 10 nM; in assay [1] (72 h), 4 nM; in assay [2] it was 73 nM; on PI3K-α, 3.5 nM; on PI3K-γ it was 55.5 nM.

Take `CN(C)CCN(C)C(=O)c1ccc(NC(=O)Nc2ccc(-c3nc(N4CCCCC4)nc(N4CCOCC4)n3)cc2)cc1` [Example 605, N-[2-(dimethylamino)ethyl]-N-methyl-4-({[4-(4-morpholin-4-yl-6-piperidin-1-yl-1,3,5-triazin-2-yl)phenyl]carbamoyl}amino)benzamide]: the IC50 worked out at 3 nM at Human mTOR (FLAG-TOR); 7 nM in assay [1] (72 h); 92 nM in assay [2]; 2.2 nM at PI3K-α; 46 nM on PI3K-γ.

Regarding `CCN1CCN(C(=O)c2ccc(NC(=O)Nc3ccc(-c4nc(N5CCCC5)nc(N5CCOCC5)n4)cc3)cc2)CC1` [Example 606, 1-{4-[(4-ethylpiperazin-1-yl)carbonyl]phenyl}-3-[4-(4-morpholin-4-yl-6-pyrrolidin-1-yl-1,3,5-triazin-2-yl)phenyl]urea], the half-maximal inhibitory concentration (IC50) on Human mTOR (FLAG-TOR) was found to be 26 nM; in assay [1] (MDA-MB-361, 72 h), 28 nM; in assay [2], 173 nM; at PI3K-α, 12 nM; at PI3K-γ, 87 nM.
